# According to the C3SDB collision cross section collection:
# Several values for one entry are separate records, joined by “and”; a condition that tells them apart may be missing. Equal values may be shown once.
# Details: instrument: DT, single field, calibrated with ESI Low Concentration Tuning Mix (Agilent)
collision cross section (N2) ([M+H]+),collision cross section (N2) ([M+Na]+),collision cross section (N2) ([M-H]-),collision cross section (N2) ([M+K]+),collision cross section (N2) ([M+Na-2H]-),collision cross section (N2) ([M+H]+*),collision cross section (N2) ([M+Na]+*),Structure (SMILES)
243.9 Å²,246.5 Å²,246 Å²,–,–,–,–,C=CC1=C(C)C(/C=c2\[nH]/c(=C\c3[nH]c(/C=C4\NC(=O)C(C)=C4C=C)c(C)c3CCC(=O)O)c(CCC(=O)O)c2C)=NC1=O [BILIVERDIN]
128.3 Å²,130.6 Å²,124.3 Å²,–,–,–,–,O=C(O)[C@H]1C[C@@H](O)CN1 [CIS-4-HYDROXY-D-PROLINE]
–,133.2 Å²,122 Å²,–,–,–,–,CC(O)(CC(=O)O)C(=O)O (stereo not given) [CITRAMALATE]
–,306.6 Å²,–,–,–,–,–,COC1=C(OC)C(=O)C(C/C=C(\C)CC/C=C(\C)CC/C=C(\C)CC/C=C(\C)CC/C=C(\C)CC/C=C(\C)CC/C=C(\C)CC/C=C(\C)CC/C=C(\C)CCC=C(C)C)=C(C)C1=O [COENZYME Q10]
198.8 Å²,203 Å²,196.3 Å²,207.2 Å²,–,–,–,CC(=O)OCC(=O)[C@@]1(O)CC[C@H]2[C@@H]3CCC4=CC(=O)CC[C@]4(C)[C@H]3[C@@H](O)C[C@@]21C [CORTISOL 21-ACETATE]
172.4 Å²,184.2 Å²,167.8 Å²,–,169.7 Å²,–,–,Nc1nc(=O)c2ncn([C@@H]3O[C@@H]4COP(=O)(O)O[C@H]4[C@H]3O)c2[nH]1 [CYCLIC GMP]
147.3 Å²,147.1 Å²,141.9 Å²,–,144.6 Å²,–,–,NC(CCSCC(N)C(=O)O)C(=O)O (stereo not given) [CYSTATHIONINE]
166.8 Å² and 167 Å²,167.9 Å² and 168 Å²,164.4 Å² and 164.5 Å²,–,163.2 Å² and 163.4 Å²,–,–,Nc1ccn([C@@H]2O[C@H](COP(=O)(O)O)[C@@H](O)[C@H]2O)c(=O)n1 [CYTIDINE MONOPHOSPHATE]
188.4 Å²,192.4 Å²,181.2 Å²,–,185 Å²,–,–,Nc1ccn([C@@H]2O[C@H](COP(=O)(O)OP(=O)(O)OP(=O)(O)O)[C@@H](O)[C@H]2O)c(=O)n1 [CYTIDINE TRIPHOSPHATE]
122.8 Å²,–,–,–,–,–,–,Nc1ccnc(=O)[nH]1 [CYTOSINE]
138.1 Å²,141.3 Å²,–,–,–,–,–,N[C@@H]1C(O)O[C@H](CO)[C@@H](O)[C@@H]1O (stereo partly drawn) [D-MANNOSAMINE]
168.5 Å²,173 Å²,164.9 Å²,–,169.8 Å²,–,–,Nc1ncnc2c1ncn2[C@H]1C[C@H](O)[C@@H](COP(=O)(O)O)O1 [DEOXYADENOSINE MONOPHOSPHATE]
–,157 Å² and 164.7 Å²,162.4 Å²,–,–,–,–,Nc1ccn([C@H]2C[C@H](O)[C@@H](COP(=O)(O)O)O2)c(=O)n1 [DEOXYCYTIDINE MONOPHOSPHATE]
–,134.3 Å²,–,–,–,–,–,O=CC[C@H](O)[C@H](O)CO [DEOXYRIBOSE]
–,–,–,–,–,153.9 Å²,157.2 Å²,C[C@H](O)[C@H](O)C1=Nc2c([nH]c(N)nc2=O)NC1 [DIHYDROBIOPTERIN]
142.3 Å²,–,131.8 Å²,–,–,–,–,NCCc1ccc(O)c(O)c1 [DOPAMINE]
–,129.9 Å²,–,–,–,–,–,OC[C@@H](O)[C@@H](O)CO [ERYTHRITOL]
196.2 Å²,205.7 Å²,192 Å²,–,201.3 Å²,–,–,Nc1nc(=O)c2nc(CNc3ccc(C(=O)N[C@@H](CCC(=O)O)C(=O)O)cc3)cnc2[nH]1 [FOLATE]
–,138.7 Å²,–,–,–,–,–,C[C@@H]1OC(O)[C@@H](O)[C@H](O)[C@@H]1O (stereo not given in full) [FUCOSE]
–,146.9 Å²,132.6 Å²,–,137.2 Å²,–,–,O=C(O)[C@@H](O)[C@H](O)[C@H](O)[C@@H](O)C(=O)O [GALACTARATE]
–,142.2 Å²,130.5 Å²,–,–,–,–,OC[C@@H](O)[C@H](O)[C@H](O)[C@@H](O)CO [GALACTITOL]
–,146.2 Å² and 146.3 Å²,132.4 Å²,–,–,–,–,O=C(O)[C@H](O)[C@@H](O)[C@H](O)[C@H](O)CO [GLUCONATE]
–,–,149.4 Å²,–,–,–,–,N[C@@H]1[C@@H](O)[C@H](O)[C@@H](COS(=O)(=O)O)O[C@H]1O [GLUCOSAMINE 6-SULFATE]
131.1 Å²,–,123.8 Å²,149.8 Å²,131.8 Å²,–,–,N[C@@H](CCC(=O)O)C(=O)O [GLUTAMATE]
130.9 Å²,–,127.3 Å²,–,–,–,–,NC(=O)CC[C@H](N)C(=O)O [GLUTAMINE]

collision cross section (N2) ([M+H]+),collision cross section (N2) ([M+Na]+),collision cross section (N2) ([M-H]-),collision cross section (N2) ([M+K]+),collision cross section (N2) ([M+Na-2H]-),collision cross section (N2) ([M+H]+*),collision cross section (N2) ([M+Na]+*),Structure (SMILES)
161.1 Å²,167.1 Å²,165.3 Å²,–,–,–,–,C[N+](C)(C)C[C@@H](CC(=O)[O-])OC(=O)CCCC(=O)O [GLUTARYLCARNITINE]
196.8 Å²,203.6 Å²,200.7 Å²,–,–,–,–,C[C@H](CCC(=O)NCC(=O)O)[C@H]1CC[C@H]2[C@@H]3[C@H](O)C[C@@H]4C[C@H](O)CC[C@]4(C)[C@H]3CC[C@]12C [GLYCOCHENODEOXYCHOLATE]
124.9 Å²,134.6 Å²,–,–,–,–,–,NC(N)=NCC(=O)O [GUANIDINOACETATE]
136.8 Å²,148 Å²,130.2 Å²,–,147 Å²,–,–,NC(N)=N[C@@H](CC(=O)O)C(=O)O [GUANIDINOSUCCINATE]
227.4 Å²,222.3 Å²,209 Å²,–,205.5 Å² and 217.2 Å²,–,–,Nc1nc(=O)c2ncn([C@@H]3O[C@H](COP(=O)(O)OP(=O)(O)O[C@H]4O[C@H](CO)[C@@H](O)[C@H](O)[C@@H]4O)[C@@H](O)[C@H]3O)c2[nH]1 [GUANOSINE DIPHOSPHATE MANNOSE]
192 Å²,188.4 Å²,182.4 Å²,–,186.4 Å²,–,–,Nc1nc(=O)c2ncn([C@@H]3O[C@H](COP(=O)(O)OP(=O)(O)O)[C@@H](O)[C@H]3O)c2[nH]1 [GUANOSINE DIPHOSPHATE]
–,–,193 Å²,–,184.2 Å²,–,–,Nc1nc(=O)c2ncn([C@@H]3O[C@H](COP(=O)(O)OP(=O)(O)OP(=O)(O)O)[C@@H](O)[C@H]3O)c2[nH]1 [GUANOSINE TRIPHOSPHATE]
163.4 Å²,174.9 Å²,162.1 Å²,174.3 Å²,–,–,–,Nc1nc(=O)c2ncn([C@@H]3O[C@H](CO)[C@@H](O)[C@H]3O)c2[nH]1 [GUANOSINE]
120.4 Å²,–,–,–,–,–,–,NCCc1cnc[nH]1 [HISTAMINE]
131.7 Å² and 132.1 Å²,134.6 Å² and 134.8 Å²,128.1 Å² and 128.5 Å²,–,–,–,–,N[C@@H](Cc1cnc[nH]1)C(=O)O [HISTIDINE]
128.7 Å²,131.9 Å²,127.5 Å²,–,–,–,–,NC(CO)Cc1cnc[nH]1 (stereo not given) [HISTIDINOL]
130.3 Å²,–,143.6 Å²,–,127.6 Å²,–,–,N[C@@H](CCS)C(=O)O [HOMOCYSTEINE]
158 Å²,158.8 Å²,151.6 Å²,–,154.2 Å²,–,–,NC(CCSSCCC(N)C(=O)O)C(=O)O (stereo not given) [HOMOCYSTINE]
–,170.8 Å²,158.2 Å²,170.2 Å²,–,–,–,O=c1nc[nH]c2c1ncn2[C@@H]1O[C@H](CO)[C@@H](O)[C@H]1O [INOSINE]
–,142.7 Å²,127 Å²,–,136.4 Å²,–,–,O=C(O)CC(C(=O)O)C(O)C(=O)O (stereo not given) [ISOCITRATE]
–,131.7 Å²,118.7 Å²,–,–,–,–,C=C(CC(=O)O)C(=O)O [ITACONATE]
149.4 Å²,147.5 Å²,140.6 Å²,–,–,–,–,N[C@@H](Cc1ccc(O)c(O)c1)C(=O)O [L-DOPA]
134.8 Å²,–,130.6 Å²,–,–,–,–,CC(C)C[C@H](N)C(=O)O [LEUCINE]
–,177 Å²,–,–,–,–,–,CCCCC/C=C\C/C=C\CCCCCCCC(=O)O [LINOLEATE]
–,–,115.9 Å²,–,–,–,–,O=C(O)CC(O)C(=O)O (stereo not given) [MALATE]
–,178.9 Å²,180.1 Å²,181.7 Å²,–,–,–,OC[C@H]1O[C@H](O[C@H]2[C@H](O)[C@@H](O)[C@H](O)O[C@@H]2CO)[C@H](O)[C@@H](O)[C@@H]1O [MALTOSE]
–,–,130.2 Å²,–,–,–,–,O=C([O-])C(O)c1ccccc1 (stereo not given) [MANDELATE]
–,141.5 Å²,–,–,–,–,–,OC[C@H]1OC(O)[C@@H](O)[C@@H](O)[C@@H]1O (stereo not given in full) [MANNOSE]
–,132.9 Å²,128.7 Å²,–,–,–,–,C[C@@](O)(CCO)CC(=O)[O-] [MEVALONATE]
